Test results as given in PMC11848559, “Inhibition of CDH11 Activates cGAS‐STING by Stimulating Branched Chain Amino Acid Catabolism and Mitigates Lung Metastasis of Adenoid Cystic Carcinoma” (Advanced Science, 2024).
Read-outs that look alike come from different tables or passages of the source.

How the values were obtained:
[1] = target: T1, Recombinant Human His-Tagged Cadherin-11 Protein (CDH11) (Homo sapiens, UniProt P55287); test: surface plasmon resonance (Biacore, CM7 chip, protein immobilised); type: binding
T1 construct: commercial recombinant His-tagged protein (Sino Biological); amine-coupled to CM7 chip
T1 sequence (P55287 54-617 limits assumed): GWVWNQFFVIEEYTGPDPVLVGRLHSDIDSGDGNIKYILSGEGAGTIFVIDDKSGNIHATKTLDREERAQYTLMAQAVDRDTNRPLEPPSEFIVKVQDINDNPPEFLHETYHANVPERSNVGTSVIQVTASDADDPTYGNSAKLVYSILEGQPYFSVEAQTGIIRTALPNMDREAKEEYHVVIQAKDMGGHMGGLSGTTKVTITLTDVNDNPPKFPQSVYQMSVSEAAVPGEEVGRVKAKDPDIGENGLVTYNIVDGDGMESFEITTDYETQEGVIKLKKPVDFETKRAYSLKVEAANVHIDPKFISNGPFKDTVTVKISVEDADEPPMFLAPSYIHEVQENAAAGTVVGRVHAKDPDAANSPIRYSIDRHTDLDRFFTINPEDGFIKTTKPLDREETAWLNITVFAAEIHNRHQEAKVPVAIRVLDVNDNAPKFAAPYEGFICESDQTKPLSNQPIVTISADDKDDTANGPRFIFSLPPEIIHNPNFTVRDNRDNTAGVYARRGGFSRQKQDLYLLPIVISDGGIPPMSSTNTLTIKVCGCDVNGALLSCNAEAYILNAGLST

CDH11 (SACC-83 cells) = target: T2, CDH11 (SACC-83 cells) (Homo sapiens, UniProt P55287); test: cellular thermal shift assay (western blot); type: cell-based; settings: intact cells, 6 h treatment at cell-viability IC50 dose; 53-66 °C, 3 min
T2 construct: endogenous CDH11 in intact SACC-83 cells, untagged, detected by western blot with anti-CDH11 antibody
T2 sequence (P55287 54-796): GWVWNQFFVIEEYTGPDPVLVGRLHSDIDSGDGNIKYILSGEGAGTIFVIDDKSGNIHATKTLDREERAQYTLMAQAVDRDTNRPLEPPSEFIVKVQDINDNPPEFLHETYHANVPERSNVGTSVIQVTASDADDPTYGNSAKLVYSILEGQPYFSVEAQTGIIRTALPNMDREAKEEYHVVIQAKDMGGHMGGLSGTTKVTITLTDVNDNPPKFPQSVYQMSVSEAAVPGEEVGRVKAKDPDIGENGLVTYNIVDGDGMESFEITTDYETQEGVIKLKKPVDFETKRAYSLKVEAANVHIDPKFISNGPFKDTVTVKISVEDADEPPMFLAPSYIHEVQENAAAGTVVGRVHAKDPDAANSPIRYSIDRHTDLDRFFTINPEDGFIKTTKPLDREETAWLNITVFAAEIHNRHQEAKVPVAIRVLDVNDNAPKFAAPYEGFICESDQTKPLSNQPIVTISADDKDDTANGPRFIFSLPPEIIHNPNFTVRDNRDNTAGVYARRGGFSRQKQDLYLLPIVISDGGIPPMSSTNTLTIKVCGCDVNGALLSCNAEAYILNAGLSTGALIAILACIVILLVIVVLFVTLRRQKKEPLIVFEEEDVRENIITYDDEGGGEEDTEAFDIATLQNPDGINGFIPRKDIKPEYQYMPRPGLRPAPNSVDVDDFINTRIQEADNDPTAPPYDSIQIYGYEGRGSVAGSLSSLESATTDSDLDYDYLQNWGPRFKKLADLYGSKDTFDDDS

Row | Kd [1] | Kd ([1]; 25 °C, analyte 3.125-100 µM) | Compound | cellular thermal shift assay (western blot) (CDH11 (SACC-83 cells))
1 | 4.67 µM |  | Cc1ccc(-c2cc(C(F)(F)F)nn2-c2ccc(S(N)(=O)=O)cc2)cc1 [CXB, Celecoxib] | All three compounds exhibited significant binding capability toward CDH11
2 | 10.9 µM |  | Cc1ccc(C)c(-c2cc(C(F)(F)F)nn2-c2ccc(S(N)(=O)=O)cc2)c1 [DMC, Dimethylcelecoxib] | All three compounds exhibited significant binding capability toward CDH11
3 |  | 27.4 µM | SD-133 | 
